pIC50: −log10 of the molar value. Where a name gives a salt, the structure may show the parent alone.
How the values were obtained:
[1] = target: T1, SauLRS (leucyl-tRNA synthetase from Staphylococcus aureus) (Staphylococcus aureus, UniProt Q2FXH2); assay: aaRS aminoacylation assay (ATP consumption), SauLRS; format: biochemical; settings: i.a. = inactive at a concentration below 50 uM; for pIC50: read-out: IC50 SauLRS
T1 construct: made in house; host or cells: Escherichia coli M15
T1 sequence (Q2FXH2 1-805): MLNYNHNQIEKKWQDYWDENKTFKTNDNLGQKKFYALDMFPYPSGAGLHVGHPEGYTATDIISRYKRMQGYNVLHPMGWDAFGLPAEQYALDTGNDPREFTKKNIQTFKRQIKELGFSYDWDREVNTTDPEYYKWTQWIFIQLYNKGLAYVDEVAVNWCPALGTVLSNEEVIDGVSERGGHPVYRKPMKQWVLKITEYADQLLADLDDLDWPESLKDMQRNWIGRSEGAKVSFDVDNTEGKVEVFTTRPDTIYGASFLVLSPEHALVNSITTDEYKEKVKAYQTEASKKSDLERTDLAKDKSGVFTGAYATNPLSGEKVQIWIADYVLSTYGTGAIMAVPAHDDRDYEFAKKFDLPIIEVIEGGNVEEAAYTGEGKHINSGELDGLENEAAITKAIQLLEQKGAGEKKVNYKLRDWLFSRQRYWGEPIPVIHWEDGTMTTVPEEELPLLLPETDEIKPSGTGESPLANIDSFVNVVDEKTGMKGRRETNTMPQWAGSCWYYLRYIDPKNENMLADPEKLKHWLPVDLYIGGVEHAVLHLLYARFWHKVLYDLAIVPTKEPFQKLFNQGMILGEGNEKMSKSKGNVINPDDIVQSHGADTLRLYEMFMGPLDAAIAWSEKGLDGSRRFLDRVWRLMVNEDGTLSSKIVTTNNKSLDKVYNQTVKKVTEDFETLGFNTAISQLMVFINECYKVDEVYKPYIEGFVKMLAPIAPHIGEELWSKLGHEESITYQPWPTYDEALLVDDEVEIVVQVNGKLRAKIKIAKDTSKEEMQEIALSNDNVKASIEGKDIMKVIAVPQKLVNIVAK
Protocol: (§1) The compounds have been tested for antibacterial activity in vitro as aminoacyl-tRNA synthetases (aaRS) inhibitors following the following process.
(§2) Leucyl-, valyl- and isoleucyl-tRNA synthetases (LRS, VRS and IRS, respectively) from Escherichia coli (Eco) and Staphylococcus aureus (Sau).
(§3) Escherichia coli M15 cells transformed with plasmid pQE-60, or pQE-70, containing the open-reading frame sequence of one targeted aaRS were induced with 1 mM IPTG (Isopropyl β-D-1-thiogalactopyranoside) for 3 h at 37° C. Bacterial cells were harvested and lysed with 20 mM NaH2PO4 (pH 8.0), 200 mM NaCl, 10 mM imidazole and protease inhibitor cocktail (Roche). Pathogenic aaRS was purified by nickel affinity standard chromatography. Protein concentration was determined by spectrophotometry.
(§4) tRNA^Leu, tRNA^Val and tRNA^Ile from E. coli and S. aureus were transcribed in vitro for 4 h at 37° C. using T7 RNA polymerase. Transcription reaction contained 40 mM Tris-HCl (pH 8.0), 22 mM MgCl2, 1 mM spermidine, 5 mM DTT, 0.01% Triton X-100, 4 mM GTP, 4 mM ATP, 4 mM UTP, 4 mM CTP, 16 mM GMP, […] T7 RNA polymerase and 150 μg BstNI digested plasmid. Once finished, the reaction was applied on a 6% polyacrylamide-8 M urea denaturing gel to purify the transcribed tRNA and discard any impurities. Purified tRNA was quantified with Nanodrop 2000 (Thermo Scientific).
(§5) The aminoacylation reaction catalyzed by aminoacyl-tRNA synthetases (aaRS) takes place in two steps. In the first step, aaRS activates its cognate amino acid with ATP; and in the second step the activated amino acid is loaded to its corresponding tRNA. This reaction can be summarized as follows: ARS+aa+ATP=ARS-aa-AMP+PPi ARS-aa-AMP+tRNA=aa-tRNA+AMP+ARS [2] (ARS, Aminoacyl-tRNA synthetase; aa, amino acid; ARS-aa-AMP, enzyme-bound to aminoacyl-adenylate; aa-tRNA, aminoacyl-tRNA).
(§6) The activity of the pathogenic aaRSs was monitored by measuring the ATP consumption rate, since this consumption is directly proportional to the activity of the aaRS. If the tested compound, at a single point concentration of 50 μM, is inhibiting the aminoacylation reaction, there is a decrease in the ATP consumption, compared to the control reaction without compound, allowing the calculation of an inhibition ratio.
(§7) When the inhibition ratio for a given compound was above 80%, IC50 determination was performed with the same enzymatic assay (using the commercial kit Kinase RR from BioThema AB, Sweden) in the presence of serial dilutions of inhibitor. Known inhibitors of LRS, VRS or IRS were used as a positive control of the assay. The IC50 was calculated based on nonlinear regression analysis.

[2] = target: T2, SauIRS (isoleucyl-tRNA synthetase from Staphylococcus aureus) (Staphylococcus aureus, UniProt P41972); assay: aaRS aminoacylation assay (ATP consumption), SauIRS; format: biochemical; settings: i.a. = inactive at a concentration below 50 uM
T2 construct: made in house; host or cells: Escherichia coli M15
T2 sequence (P41972 1-917): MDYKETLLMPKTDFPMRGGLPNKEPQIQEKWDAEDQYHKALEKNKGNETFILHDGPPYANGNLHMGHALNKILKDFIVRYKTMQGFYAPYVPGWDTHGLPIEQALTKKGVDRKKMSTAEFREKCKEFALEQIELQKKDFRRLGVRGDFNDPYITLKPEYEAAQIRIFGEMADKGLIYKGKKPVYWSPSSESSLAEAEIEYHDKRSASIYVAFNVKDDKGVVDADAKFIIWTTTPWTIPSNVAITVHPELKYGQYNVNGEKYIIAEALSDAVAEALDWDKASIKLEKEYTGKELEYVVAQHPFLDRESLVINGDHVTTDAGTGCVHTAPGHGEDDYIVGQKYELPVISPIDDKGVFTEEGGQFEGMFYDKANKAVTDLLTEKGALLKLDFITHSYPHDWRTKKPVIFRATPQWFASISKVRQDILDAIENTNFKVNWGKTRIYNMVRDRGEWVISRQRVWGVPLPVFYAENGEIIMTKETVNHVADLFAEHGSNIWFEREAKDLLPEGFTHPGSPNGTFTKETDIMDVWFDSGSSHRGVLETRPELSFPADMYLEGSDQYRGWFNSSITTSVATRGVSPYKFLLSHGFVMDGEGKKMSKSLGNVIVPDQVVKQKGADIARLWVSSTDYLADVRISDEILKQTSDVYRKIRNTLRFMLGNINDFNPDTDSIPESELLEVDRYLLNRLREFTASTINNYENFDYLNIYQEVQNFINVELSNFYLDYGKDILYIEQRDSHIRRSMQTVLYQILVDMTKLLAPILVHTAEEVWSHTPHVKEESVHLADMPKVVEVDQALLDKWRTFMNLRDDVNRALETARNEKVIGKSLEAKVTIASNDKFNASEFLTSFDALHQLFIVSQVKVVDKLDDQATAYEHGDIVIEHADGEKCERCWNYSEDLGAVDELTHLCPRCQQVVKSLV
Protocol: as §1, §2, §3, §4, §5, §6, §7

SMILES | pIC50 [1] | IC50 SauIRS [2] | melting point | IC50 SauLRS [1]
COc1cc(-c2cccc(S(=O)(=O)NC(=O)[C@@H](N)CC(C)C)c2)nc(N)n1 [Compound 5.36] | 5.52 | i.a. | 87 to 88 °C (dec.) | –
CC(C)C[C@H](N)C(=O)NS(=O)(=O)c1cccc2c1CNCC2 [Compound 5.26, (S)-2-amino-4-methyl-N-((1,2,3,4-tetrahydroisoquinolin-8-yl)sulfonyl) pentanamide trifluoroacetate] | 4.70 | i.a | – | –
Cc1cc(-c2cccc(S(=O)(=O)NC(=O)[C@@H](N)C3CC3)c2)nc(N)n1 [Compound 5.33] | – | i.a | 158 °C (dec.) | i.a
CC(C)C[C@H](N)C(=O)NS(=O)(=O)c1cccc2c1OCCC2 [Compound 5.25] | 4.85 | i.a | 165 °C (dec.) | –
Cc1cc(-c2cccc(S(=O)(=O)NC(=O)[C@@H](N)CC3CCCCC3)c2)nc(N)n1 [Compound 5.34] | – | i.a | – | i.a
Cc1cc(-c2cccc(S(=O)(=O)NC(=O)[C@@H](N)CC3CCC3)c2)nc(N)n1 [Compound 5.31] | – | i.a | – | i.a
CC(C)C[C@H](N)C(=O)NS(=O)(=O)c1ccccc1F [Compound 5.6] | 4.77 | i.a | – | –
CC(C)C[C@H](N)C(=O)NS(=O)(=O)c1cccc(Cl)c1 [Compound 5.4] | 6.04 | i.a | – | –
CC(C)C[C@H](N)C(=O)NS(=O)(=O)c1cccc2ccccc12 [Compound 5.13] | 4.79 | i.a | – | –
COc1ccc2cc(S(=O)(=O)NC(=O)[C@@H](N)CC(C)C)ccc2c1 [Compound 5.17] | 5.70 | i.a | 230 to 232 °C | –
CC(C)C[C@H](N)C(=O)NS(=O)(=O)c1cccc(-c2cc(N)nc(N)n2)c1 [Compound 5.45] | 6.14 | i.a. | 234 °C (dec.) | –
CC[C@H](C)[C@H](N)C(=O)NS(=O)(=O)c1cccc(-c2cc(C)nc(N)n2)c1 [Compound 5.40] | – | i.a. | 97 °C | i.a.
CC(C)C[C@H](N)C(=O)NS(=O)(=O)c1cccc2c(N(C)C)cccc12 [Compound 5.16, (S)-2-amino-N-((5-(dimethylamino)naphthalen-1-yl)sulfonyl)-4-methylpentanamide hydrochloride] | – | i.a | – | i.a
CC(C)C[C@H](N)C(=O)NS(=O)(=O)c1ccccc1 [Compound 5.1, (S)-2-amino-4-methyl-N-(phenylsulfonyl)pentanamide hydrochloride] | 5.27 | i.a. | – | –
CC(C)C[C@H](N)C(=O)NS(=O)(=O)c1cccc(-c2ccnc(N)c2)c1 [Compound 5.43] | 6.48 | i.a. | 141 °C (dec.) | –
CC(C)C[C@H](N)C(=O)NS(=O)(=O)c1ccc2ccccc2c1 [Compound 5.14] | 6.00 | i.a | 215 °C (dec.) | –
CC(C)C[C@H](N)C(=O)NS(=O)(=O)c1cccc(-c2ccccc2)c1 [Compound 5.9] | 6.19 | i.a | 149 °C (dec.) | –
CC(C)C[C@H](N)C(=O)NS(=O)(=O)c1cccc(-c2ccnc(N)n2)c1 [Compound 5.37] | 5.66 | i.a. | 224 to 226 °C (dec.) | –
CC(C)C[C@H](N)C(=O)NS(=O)(=O)c1cccc2cc(C(N)=O)ncc12 [Compound 5.24, 8-(N-(L-Leucyl)sulfamoyl)isoquinoline-3-carboxamide] | 5.07 | i.a | – | –
CCc1cc(-c2cccc(S(=O)(=O)NC(=O)[C@@H](N)CC(C)C)c2)nc(N)n1 [Compound 5.47] | 5.67 | i.a. | – | –
CC(C)C[C@H](N)C(=O)NS(=O)(=O)c1ccc(Br)c2ccncc12 [Compound 5.22, trifluoroacetate] | 4.94 | i.a | – | –
CC(C)C[C@H](N)C(=O)NS(=O)(=O)c1cccc(-c2ncnc(N)n2)c1 [Compound 5.48] | 6.28 | i.a. | – | –
CCCCc1ccc(S(=O)(=O)NC(=O)[C@@H](N)CC(C)C)cc1 [Compound 5.7] | 5.31 | i.a | – | –
CC(C)C[C@H](N)C(=O)NS(=O)(=O)c1cccc(-c2cc(N)ncn2)c1 [Compound 5.46] | 5.89 | i.a. | – | –
CC(C)C[C@H](N)C(=O)NS(=O)(=O)c1ccccc1Cl [Compound 5.5] | 4.88 | i.a | – | –
CC(C)C[C@H](N)C(=O)NS(=O)(=O)c1cccc(-c2cc(N(C)C)nc(N)n2)c1 [Compound 5.28] | 5.32 | i.a | – | –
CNc1cc(-c2cccc(S(=O)(=O)NC(=O)[C@@H](N)CC(C)C)c2)nc(N)n1 [Compound 5.27] | 6.59 | i.a | – | –
CSc1cc(-c2cccc(S(=O)(=O)NC(=O)[C@@H](N)CC(C)C)c2)nc(N)n1 [Compound 5.29] | 5.92 | i.a | – | –
CC(C)C[C@H](N)C(=O)NS(=O)(=O)c1cccc2cccnc12 [Compound 5.19] | 4.77 | i.a | – | –

— patent publication US11072581B2, “N-acyl-arylsulfonamide derivatives as aminoacyl-tRNA synthetase inhibitors” (Oxford Drug Design Limited, priority 2015, dated 2021)
